Literature values in patent EP1939174A1, “Inclusion complex of ezetimibe and a cyclodextrin and processes in the preparation thereof” (LEK Pharmaceuticals d.d., priority 2006, dated 2008).

- solubility in alcohols and acetone (in alcohols and acetone): freely soluble
- solubility in water (in water): practically insoluble
Structure (SMILES): O=C1[C@H](CC[C@H](O)c2ccc(F)cc2)[C@@H](c2ccc(O)cc2)N1c1ccc(F)cc1 [Ezetimibe, 1-4(fluorophenyl)-3-(R)-[3-(4-fluorophenyl)-3-(S)-hydroxypropyl]-4-(S)-(4-hydroxyphenyl)-2-azetidinone]
